Measurements published in the NIST ThermoML archive (doi:10.1016/j.fluid.2013.08.005).

Assay: molar heat capacity at constant pressure; mn = molality of the nth substance listed, in mol/kg
Conditions: 101 kPa, Liquid, Large sample (1 g) DSC

CCCCCC[N+](C)(C)C.[Br-] [hexyltrimethylammonium bromide] + O
molar heat capacity at constant pressure [J/K/mol]
Conditions | 298.15 K | 303.15 K | 308.15 K | 313.15 K
m1 = 0.01002 | 75.42 | 75.39 | 75.38 | 75.39
m1 = 0.02406 | 75.57 | 75.55 | 75.54 | 75.55
m1 = 0.03 | 75.65 | 75.62 | 75.61 | 75.63
m1 = 0.03989 | 75.72 | 75.7 | 75.69 | 75.69
m1 = 0.045 | 75.7 | 75.68 | 75.67 | 75.7
m1 = 0.04985 | 75.78 | 75.76 | 75.75 | 75.76
m1 = 0.05497 | 75.82 | 75.79 | 75.78 | 75.8
m1 = 0.05996 | 75.89 | 75.86 | 75.86 | 75.87
m1 = 0.07507 | 75.97 | 75.95 | 75.94 | 75.95
m1 = 0.07976 | 76.04 | 76.02 | 76.02 | 76.02
m1 = 0.09 | 76.13 | 76.11 | 76.11 | 76.12
m1 = 0.09694 | 76.14 | 76.12 | 76.11 | 76.13
m1 = 0.11 | 76.31 | 76.29 | 76.28 | 76.3
m1 = 0.1199 | 76.37 | 76.35 | 76.35 | 76.36
m1 = 0.1251 | 76.39 | 76.36 | 76.36 | 76.38
m1 = 0.1301 | 76.52 | 76.51 | 76.51 | 76.52
m1 = 0.14 | 76.58 | 76.56 | 76.55 | 76.57
m1 = 0.1502 | 76.59 | 76.57 | 76.57 | 76.58
m1 = 0.1751 | 76.79 | 76.78 | 76.77 | 76.78
m1 = 0.1993 | 77 | 76.98 | 76.98 | 77
m1 = 0.2248 | 77.21 | 77.19 | 77.19 | 77.21
m1 = 0.2507 | 77.41 | 77.4 | 77.41 | 77.43
m1 = 0.2757 | 77.59 | 77.58 | 77.59 | 77.61
m1 = 0.2801 | 77.65 | 77.64 | 77.66 | 77.71
m1 = 0.2851 | 77.71 | 77.7 | 77.69 | 77.71
m1 = 0.2996 | 77.82 | 77.8 | 77.8 | 77.83
m1 = 0.3222 | 78.01 | 78 | 78.01 | 78.06
m1 = 0.3311 | 78.06 | 78.05 | 78.06 | 78.09
m1 = 0.3512 | 78.21 | 78.21 | 78.21 | 78.23
m1 = 0.4002 | 78.59 | 78.59 | 78.6 | 78.64
m1 = 0.4258 | 78.85 | 78.84 | 78.84 | 78.86
m1 = 0.4503 | 79 | 78.99 | 79 | 79.02
m1 = 0.4998 | 79.37 | 79.37 | 79.38 | 79.41
m1 = 0.5263 | 79.58 | 79.57 | 79.58 | 79.61
m1 = 0.5513 | 79.72 | 79.73 | 79.75 | 79.77
m1 = 0.5742 | 79.94 | 79.95 | 79.96 | 79.98
m1 = 0.6007 | 80.15 | 80.16 | 80.18 | 80.22
m1 = 0.6516 | 80.55 | 80.56 | 80.57 | 80.59
m1 = 0.701 | 80.9 | 80.91 | 80.92 | 80.95
m1 = 0.7517 | 81.28 | 81.29 | 81.31 | 81.33
m1 = 0.8016 | 81.66 | 81.67 | 81.68 | 81.71
m1 = 0.8842 | 82.28 | 82.29 | 82.31 | 82.33
m1 = 0.9496 | 82.77 | 82.78 | 82.79 | 82.81
m1 = 0.9915 | 83.01 | 83.02 | 83.05 | 83.08

CCCCCCCC[N+](C)(C)C.[Br-] [octyl trimethyl ammonium bromide] + O
molar heat capacity at constant pressure [J/K/mol]
Conditions | 298.15 K | 303.15 K | 308.15 K | 313.15 K
m1 = 0.00997 | 75.46 | 75.44 | 75.44 | 75.45
m1 = 0.01501 | 75.58 | 75.55 | 75.54 | 75.55
m1 = 0.025 | 75.69 | 75.66 | 75.65 | 75.66
m1 = 0.04 | 75.85 | 75.83 | 75.82 | 75.83
m1 = 0.05 | 75.95 | 75.93 | 75.92 | 75.93
m1 = 0.07502 | 76.27 | 76.24 | 76.23 | 76.25
m1 = 0.08 | 76.32 | 76.29 | 76.29 | 76.3
m1 = 0.08509 | 76.4 | 76.38 | 76.36 | 76.36
m1 = 0.09999 | 76.54 | 76.51 | 76.5 | 76.51
m1 = 0.1202 | 76.79 | 76.74 | 76.74 | 76.77
m1 = 0.125 | 76.85 | 76.82 | 76.81 | 76.81
m1 = 0.1397 | 76.98 | 76.95 | 76.93 | 76.93
m1 = 0.15 | 77.1 | 77.08 | 77.07 | 77.08
m1 = 0.16 | 77.21 | 77.19 | 77.17 | 77.15
m1 = 0.175 | 77.41 | 77.38 | 77.37 | 77.37
m1 = 0.1799 | 77.47 | 77.44 | 77.43 | 77.42
m1 = 0.1898 | 77.59 | 77.55 | 77.54 | 77.53
m1 = 0.2 | 77.66 | 77.63 | 77.61 | 77.61
m1 = 0.2197 | 77.9 | 77.87 | 77.85 | 77.83
m1 = 0.24 | 78.15 | 78.11 | 78.09 | 78.08
m1 = 0.25 | 78.24 | 78.2 | 78.18 | 78.17
m1 = 0.2601 | 78.37 | 78.32 | 78.29 | 78.28
m1 = 0.2751 | 78.52 | 78.47 | 78.44 | 78.42
m1 = 0.2801 | 78.66 | 78.63 | 78.59 | 78.56
m1 = 0.2999 | 78.81 | 78.74 | 78.69 | 78.67
m1 = 0.3251 | 79.06 | 78.99 | 78.94 | 78.91
m1 = 0.3497 | 79.28 | 79.2 | 79.15 | 79.13
m1 = 0.3749 | 79.51 | 79.43 | 79.39 | 79.37
m1 = 0.4 | 79.68 | 79.61 | 79.57 | 79.56
m1 = 0.4248 | 79.91 | 79.85 | 79.83 | 79.83
m1 = 0.4742 | 80.26 | 80.22 | 80.2 | 80.2
m1 = 0.5499 | 80.8 | 80.74 | 80.73 | 80.77
m1 = 0.6251 | 81.38 | 81.36 | 81.37 | 81.41
m1 = 0.7072 | 81.85 | 81.84 | 81.87 | 81.93
m1 = 1.277 | 85.58 | 85.68 | 85.8 | 85.96
m1 = 2.09 | 90.58 | 90.8 | 91.05 | 91.33
